Where a name gives a salt, the structure may show the parent alone.
target: T1, hNaV1.7 (Homo sapiens, UniProt Q15858); assay: Patch voltage clamp electrophysiology (EP), Syncropatch 384PE, Nav1.7 in CHO cells; format: cell-based; details: holding potential −50 mV, inhibition based on 7.5 min compound incubation, read-out: hNaV1.7 EP_SP;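 note: Nav1.7 stably expressed from cDNA in CHO cells, holding potential of −50 mV kept for the entire experiment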
T1 construct: expressed in transfected cells
T1 sequence (Q15858 1-1977 isoform Q15858-3): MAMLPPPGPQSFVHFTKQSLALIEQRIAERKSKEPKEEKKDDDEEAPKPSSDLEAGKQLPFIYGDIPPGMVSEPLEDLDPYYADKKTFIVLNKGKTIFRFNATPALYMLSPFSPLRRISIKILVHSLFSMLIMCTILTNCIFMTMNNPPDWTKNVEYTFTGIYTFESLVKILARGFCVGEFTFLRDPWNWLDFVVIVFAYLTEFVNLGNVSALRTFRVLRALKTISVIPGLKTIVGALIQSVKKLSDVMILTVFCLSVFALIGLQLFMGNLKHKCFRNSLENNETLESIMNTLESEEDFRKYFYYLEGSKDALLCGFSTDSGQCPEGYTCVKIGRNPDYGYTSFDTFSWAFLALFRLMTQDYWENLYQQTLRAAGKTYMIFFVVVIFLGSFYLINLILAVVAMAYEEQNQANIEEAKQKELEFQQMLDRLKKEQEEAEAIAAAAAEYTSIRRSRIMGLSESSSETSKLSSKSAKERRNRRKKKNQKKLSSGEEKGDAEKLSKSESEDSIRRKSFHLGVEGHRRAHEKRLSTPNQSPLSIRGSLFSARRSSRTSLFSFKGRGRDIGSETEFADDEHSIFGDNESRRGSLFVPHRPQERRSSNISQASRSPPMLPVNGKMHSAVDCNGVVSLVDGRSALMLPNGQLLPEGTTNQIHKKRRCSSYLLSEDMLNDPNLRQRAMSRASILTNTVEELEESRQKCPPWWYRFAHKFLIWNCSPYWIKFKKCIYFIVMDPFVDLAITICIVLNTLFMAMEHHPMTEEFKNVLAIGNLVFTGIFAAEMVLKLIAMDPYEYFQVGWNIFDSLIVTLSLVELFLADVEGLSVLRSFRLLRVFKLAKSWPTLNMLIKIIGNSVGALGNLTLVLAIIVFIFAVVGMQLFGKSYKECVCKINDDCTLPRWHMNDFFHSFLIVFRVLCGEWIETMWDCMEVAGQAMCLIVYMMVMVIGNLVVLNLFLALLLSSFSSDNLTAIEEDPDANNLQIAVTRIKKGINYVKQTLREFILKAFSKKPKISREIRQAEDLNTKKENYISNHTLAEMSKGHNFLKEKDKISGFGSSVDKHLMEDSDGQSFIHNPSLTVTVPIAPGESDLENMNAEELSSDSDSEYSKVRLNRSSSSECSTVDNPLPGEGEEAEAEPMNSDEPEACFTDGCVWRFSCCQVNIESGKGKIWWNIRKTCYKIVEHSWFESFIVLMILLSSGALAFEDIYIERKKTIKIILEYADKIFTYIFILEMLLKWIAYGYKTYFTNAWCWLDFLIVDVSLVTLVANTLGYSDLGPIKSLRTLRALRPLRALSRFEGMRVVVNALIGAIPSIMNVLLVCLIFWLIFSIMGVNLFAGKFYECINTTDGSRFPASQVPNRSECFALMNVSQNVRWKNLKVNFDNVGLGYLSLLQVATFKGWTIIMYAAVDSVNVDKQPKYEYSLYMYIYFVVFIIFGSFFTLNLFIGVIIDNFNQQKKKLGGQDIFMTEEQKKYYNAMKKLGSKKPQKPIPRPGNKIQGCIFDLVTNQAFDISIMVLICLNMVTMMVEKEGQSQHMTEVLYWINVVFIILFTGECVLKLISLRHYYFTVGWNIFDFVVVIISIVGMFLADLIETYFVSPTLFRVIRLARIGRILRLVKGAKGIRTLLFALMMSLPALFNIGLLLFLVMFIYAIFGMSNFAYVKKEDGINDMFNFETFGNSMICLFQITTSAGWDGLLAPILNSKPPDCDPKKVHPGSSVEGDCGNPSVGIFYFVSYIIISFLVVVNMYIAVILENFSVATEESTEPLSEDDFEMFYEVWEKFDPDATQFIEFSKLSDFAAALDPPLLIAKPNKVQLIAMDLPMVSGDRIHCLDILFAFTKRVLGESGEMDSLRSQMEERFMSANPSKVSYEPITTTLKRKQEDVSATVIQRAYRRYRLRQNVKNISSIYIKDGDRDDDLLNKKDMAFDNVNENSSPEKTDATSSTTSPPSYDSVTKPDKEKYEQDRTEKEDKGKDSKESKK

Row | SMILES | IC50 [nM]
1 | CN1CC(OC2CCN(S(=O)(=O)NC(=O)c3cc(C4CC4)c(OCC4CCCC4)cc3F)CC2)C1 [Example 4, 4-(cyclopentylmethoxy)-5-cyclopropyl-2-fluoro-N-((4-((1-methylazetidin-3-yl)oxy)piperidin-1-yl)sulfonyl) benzamide] | 15
2 | CC(C)c1cc(C(=O)NS(=O)(=O)N2CCC(OC3CN(C)C3)CC2)c(F)cc1OCC1CCCC1 [Example 5, 4-(cyclopentylmethoxy)-2-fluoro-5-isopropyl-N-((4-((1-methylazetidin-3-yl)oxy)piperidin-1-yl)sulfonyl)benzamide] | 39
3 | COc1cc(C(=O)NS(=O)(=O)N2CCC(OC3CN(C)C3)CC2)c(F)cc1OCC1CCCC1 [Example 6, 4-(cyclopentylmethoxy)-2-fluoro-5-methoxy-N-((4-((1-methylazetidin-3-yl)oxy)piperidin-1-yl)sulfonyl) benzamide] | 320
4 | CN1CC(OC2CCN(S(=O)(=O)NC(=O)c3cc(C4CCC4)c(OCC4CCCC4)cc3F)CC2)C1 [Example 7, 5-cyclobutyl-4-(cyclopentylmethoxy)-2-fluoro-N-((4-((1-methylazetidin-3-yl)oxy)piperidin-1-yl)sulfonyl)benzamide 2,2,2-trifluoroacetate] | 8
5 | CN1CC(OC2CCN(S(=O)(=O)NC(=O)c3cc(C4CC4)c(OCC4CC4)cc3F)CC2)C1 [Example 9, 5-cyclopropyl-4-(cyclopropylmethoxy)-2-fluoro-N-((4-((1-methylazetidin-3-yl)oxy)piperidin-1-yl)sulfonyl)benzamide] | 59
6 | CC(C)N1CC(OC2CCN(S(=O)(=O)NC(=O)c3cc(Cl)c(OCC4CCCC4)cc3F)CC2)C1 [Example 10, 5-chloro-4-(cyclopentylmethoxy)-2-fluoro-N-((4-((1-isopropylazetidin-3-yl)oxy)piperidin-1-yl)sulfonyl)benzamide] | 31
7 | O=C(NS(=O)(=O)N1CCC(OC2CN(C3COC3)C2)CC1)c1cc(Cl)c(OCC2CCCC2)cc1F [Example 11, 5-chloro-4-(cyclopentylmethoxy)-2-fluoro-N-((4-((1-(oxetan-3-yl)azetidin-3-yl)oxy)piperidin-1-yl)sulfonyl)benzamide] | 130
8 | O=C(NS(=O)(=O)N1CCC(OC2CN(C3CC3)C2)CC1)c1cc(Cl)c(OCC2CCCC2)cc1F [Example 12, 5-chloro-4-(cyclopentylmethoxy)-N-((4-((1-cyclopropylazetidin-3-yl)oxy)piperidin-1-yl)sulfonyl)-2-fluorobenzamide] | 29
9 | O=C(NS(=O)(=O)N1CCC(OC2CN(CC(F)(F)F)C2)CC1)c1cc(Cl)c(OCC2CCCC2)cc1F [Example 13, 5-chloro-4-(cyclopentylmethoxy)-2-fluoro-N-((4-((1-(2,2,2-trifluoroethyl)azetidin-3-yl)oxy)piperidin-1-yl)sulfonyl)benzamide] | 240
10 | O=C(NS(=O)(=O)N1CCCc2ccccc21)c1cc(Cl)c(OCC2CCCC2)cc1F [Example 14, 5-chloro-4-(cyclopentylmethoxy)-N-((3,4-dihydroquinolin-1(2H)-yl)sulfonyl)-2-fluorobenzamide] | 78
11 | O=C(NS(=O)(=O)N1CCCc2cccnc21)c1cc(Cl)c(OCC2CCCC2)cc1F [Example 15, 5-chloro-4-(cyclopentylmethoxy)-N-((3,4-dihydro-1,8-naphthyridin-1(2H)-yl)sulfonyl)-2-fluorobenzamide] | 110
12 | O=C(NS(=O)(=O)N1CCc2ccccc2C1)c1cc(Cl)c(OCC2CCCC2)cc1F [Example 19, 5-chloro-4-(cyclopentylmethoxy)-N-((3,4-dihydroisoquinolin-2(1H)-yl)sulfonyl)-2-fluorobenzamide] | 310
13 | COC1CCN(S(=O)(=O)NC(=O)c2cc(Cl)c(OCC3CCCC3)cc2F)CC1 [Example 20, 5-chloro-4-(cyclopentylmethoxy)-2-fluoro-N-((4-methoxypiperidin-1-yl)sulfonyl)benzamide] | 49
14 | O=C(NS(=O)(=O)N1CCCCC1)c1cc(Cl)c(OCC2CCCC2)cc1F [Example 21, 5-chloro-4-(cyclopentylmethoxy)-2-fluoro-N-(piperidin-1-ylsulfonyl)benzamide] | 14
15 | O=C(NS(=O)(=O)N1CCCC1)c1cc(Cl)c(OCC2CCCC2)cc1F [Example 22, 5-chloro-4-(cyclopentylmethoxy)-2-fluoro-N-(pyrrolidin-1-ylsulfonyl)-benzamide] | 9.1
16 | O=C(NS(=O)(=O)N1CCN2CCNCC2C1)c1cc(Cl)c(OCC2CCCC2)cc1F (stereo not drawn) [Example 23, 5-chloro-4-(cyclopentylmethoxy)-2-fluoro-N-((octahydro-2H-pyrazino[1,2-a]pyrazin-2-yl)sulfonyl)benzamide] | 110
17 | O=C(NS(=O)(=O)N1CCC(CC2CNC2)CC1)c1cc(Cl)c(OCC2CCCC2)cc1F [Example 40, N-((4-(azetidin-3-ylmethyl)piperidin-1-yl)sulfonyl)-5-chloro-4-(cyclopentylmethoxy)-2-fluorobenzamide 2,2,2-trifluoroacetate] | 59

Row | SMILES | IC50 [nM]
18 | O=C(NS(=O)(=O)N1CCC(OCc2ccccc2)CC1)c1cc(Cl)c(OCC2CCCC2)cc1F [Example 41, N-((4-(benzyloxy)piperidin-1-yl)sulfonyl)-5-chloro-4-(cyclopentylmethoxy)-2-fluorobenzamide] | 170
19 | O=C(NS(=O)(=O)N1CCC(OC2CNC2)CC1)c1cc(Cl)c(OCC2CCCC2)cc1F [Example 46, N-((4-(azetidin-3-yloxy)piperidin-1-yl)sulfonyl)-5-chloro-4-(cyclopentyl-methoxy)-2-fluorobenzamide] | 250
20 | O=C(NS(=O)(=O)N1CCC(OC2CNC2)CC1)c1cc(C2CC2)c(OCC2CCCC2)cc1F [Example 47, N-((4-(azetidin-3-yloxy)piperidin-1-yl)sulfonyl)-4-(cyclopentylmethoxy)-5-cyclopropyl-2-fluorobenzamide] | 36
21 | O=C(NS(=O)(=O)N1CC(OC2CCNCC2)C1)c1cc(Cl)c(OCC2CCCC2)cc1F [Example 50, 5-chloro-4-(cyclopentylmethoxy)-2-fluoro-N-((3-(piperidin-4-yloxy)azetidin-1-yl)sulfonyl)benzamide] | 260
22 | CN1CCCC(OC2CCN(S(=O)(=O)NC(=O)c3cc(Cl)c(OCC4CCCC4)cc3F)CC2)C1 (stereo not drawn) [Example 52, 5-chloro-4-(cyclopentylmethoxy)-2-fluoro-N-((4-((1-methylpiperidin-3-yl)oxy)piperidin-1-yl)sulfonyl) benzamide] | 170
23 | O=C(NS(=O)(=O)N1CCC(OC2CCNCC2)CC1)c1cc(Cl)c(OCC2CCCC2)cc1F [Example 53, 5-chloro-4-(cyclopentylmethoxy)-2-fluoro-N-((4-(piperidin-4-yloxy)piperidin-1-yl)sulfonyl) benzamide] | 250
24 | CN(C)[C@H]1CCCC[C@@H]1Nc1ccc(S(=O)(=O)NC(=O)c2ccc(OCC3CCCC3)c(Cl)c2)c(F)c1 [Example 57, 3-chloro-4-(cyclopentylmethoxy)-N-((4-(((1S,2S)-2-(dimethylamino)-cyclohexyl)amino)-2-fluorophenyl)sulfonyl)benzamide formate] | 540
25 | O=C(NS(=O)(=O)c1c(F)cc(N2CCCCC2)cc1F)c1cc(Cl)c(OCC2CCCC2)cc1F [Example 58, 5-chloro-4-(cyclopentylmethoxy)-N-((2,6-difluoro-4-(piperidin-1-yl)phenyl)-sulfonyl)-2-fluorobenzamide] | 320
26 | CN(C)C1CCCN(c2cc(F)c(S(=O)(=O)NC(=O)c3cc(Cl)c(OCC4CCCC4)cc3F)c(F)c2)C1 (stereo not drawn) [Example 62, 5-chloro-4-(cyclopentylmethoxy)-N-((4-(3-(dimethylamino)piperidin-1-yl)-2,6-difluorophenyl)sulfonyl)-2-fluorobenzamide formate] | 17
27 | CN(C)[C@H]1CCCC[C@@H]1Nc1ccc(S(=O)(=O)NC(=O)c2cc(Cl)c(OCC3CCCC3)cc2F)cc1 [Example 64, 5-chloro-4-(cyclopentylmethoxy)-N-((4-(((1S,2S)-2-(dimethylamino)-cyclohexyl)amino)phenyl)sulfonyl)-2-fluorobenzamide formate] | 290
28 | CN(C)[C@H]1CCCC[C@@H]1Oc1ccc(S(=O)(=O)NC(=O)c2cc(C3CC3)c(OCC3CCCC3)cc2F)c(F)c1 [Example 65, 4-(cyclopentylmethoxy)-5-cyclopropyl-N-((4-(((1S,2S)-2-(dimethylamino)cyclohexyl)oxy)-2-fluorophenyl)sulfonyl)-2-fluorobenzamide] | 25
29 | CN(C)[C@H]1CCCC[C@@H]1Oc1ccc(S(=O)(=O)NC(=O)c2cc(Cl)c(OCC3CCCC3)cc2F)c(F)c1 [Example 66, 5-chloro-4-(cyclopentylmethoxy)-N-((4-(((1S,2S)-2-(dimethylamino)-cyclohexyl)oxy)-2-fluorophenyl)sulfonyl)-2-fluorobenzamide] | 220
30 | O=C(NS(=O)(=O)c1ccc(OCc2ccccc2)cc1F)c1cc(C2CC2)c(OCC2CCCC2)cc1F [Example 70, N-((4-(benzyloxy)-2-fluorophenyl)sulfonyl)-4-(cyclopentylmethoxy)-5-cyclopropyl-2-fluorobenzamide] | 60
31 | COc1ccc(F)cc1-c1nccc2cc(S(=O)(=O)NC(=O)c3cc(Cl)c(OCC4CCCC4)cc3F)ccc12 [Example 72, 5-chloro-4-(cyclopentylmethoxy)-2-fluoro-N-((1-(5-fluoro-2-methoxy-phenyl)isoquinolin-6-yl)sulfonyl)benzamide] | 340
32 | COc1cc(F)c(C(=O)NS(=O)(=O)c2ccc(O[C@H]3CC[C@H](c4cccc(C(F)(F)F)c4)C[C@@H]3N(C)C)cc2F)cc1C1CC1 [Example 74, 5-cyclopropyl-N-((4-(((1S,2S,4S)-2-(dimethylamino)-4-(3-(trifluoro-methyl)phenyl)cyclohexyl)oxy)-2-fluorophenyl)sulfonyl)-2-fluoro-4-methoxybenzamide] | 5.5
33 | CN(C)[C@H]1C[C@@H](c2cccc(C(F)(F)F)c2)CC[C@@H]1Oc1ccc(S(=O)(=O)NC(=O)c2cc(C3CC3)ccc2F)c(F)c1 [Example 75, 5-cyclopropyl-N-((4-(((1S,2S,4S)-2-(dimethylamino)-4-(3-(trifluoromethyl)-phenyl)cyclohexyl)oxy)-2-fluorophenyl)sulfonyl)-2-fluorobenzamide] | 120
